The values that follow are results of earlier work, collected in article PMC10534093 (Food Chemistry: X, 2023).

Like-named read-outs stand apart in the source and are kept apart here.

In series [1] the test system is ACE. The settings on record: Table 2; ref BIOPEP-UWM and AHTPDB.
In series [2] the test system is ACE.
In series [3] the test system is α-glucosidase. The settings on record: Table 1; ref BIOPEP-UWM and AHTPDB.
Series [4] has as its target α-glucosidase. The following applies: ref Zhang, Wang, & Li, 2016.

With WGPLVNPESQQGSPR, in the series on ACE [1], the “Known activity in the database” value is given as “ACE inhibitor”.

As to PLDLTSFVLH, the “Known activity in the database” value in the series on ACE [1] is reported as “ACE inhibitor”. Take NMAINPSKENLCSTFCK: the “IC50 against ACE” value in the series with ACE [2] (ref Tu et al., 2018) is 2830 µg/mL. Regarding EGEQPRPFPFP, in the series with ACE [1], the “Known activity in the database” value is recorded as “ACE inhibitor”. Regarding PSEVEAVFKPLGPEVGELRV, in the series with ACE [1], the “Known activity in the database” value is “ACE inhibitor”. With IGTLAGANSLLNALP, in the series on ACE [1], the “Known activity in the database” value was “ACE inhibitor”. For the substance VISQIPSQVQELAFPG, the “Known activity in the database” value in the series with ACE [1] is on record as “ACE inhibitor”. As to PFSFLVPPQESQR, the “Known activity in the database” value in the series with ACE [1] is recorded as “ACE inhibitor”. As to IPPGVPYWT, the “IC50 against ACE” value with ACE [2] (ref Sitanggang, Putri, Palupi, Hatzakis, & Budijanto, 2021) is 400 µg/mL. IVTVEGGLSVISPKW: in the series on α-glucosidase [3], the “Known activity in the database” value is “Alpha-glucosidase inhibitor”. In the case of IQAEGGLT [reference compound], in the series with α-glucosidase [3], the “Known activity in the database” value is on record as “Alpha-glucosidase inhibitor”. For TFSEYPPLGR, the “Known activity in the database” value in the series with α-glucosidase [3] was “Alpha-glucosidase inhibitor”. For RPSIGNLAGANSLLNALPE, in the series with ACE [1], the “Known activity in the database” value is given as “ACE inhibitor”. With YEAGVVPPGARFEPPR, in the series with ACE [1], the “Known activity in the database” value was “ACE inhibitor”. Regarding GPAGPAGL, the “IC50 against ACE” value with ACE [2] (ref Kheeree et al., 2020) was 8 µg/mL.

Regarding QIGLF [reference compound], in the series on ACE [1], the “Known activity in the database” value is listed as “ACE inhibitor”. Further, in the series with ACE [2] (reference peptide, ref Yu, Zhao, Liu, Lu, & Chen, 2011), the “IC50 against ACE” value was 420 µg/mL. Turning to NSPR, at α-glucosidase [4], the “IC50 against α-glucosidase” value is 93 µg/mL.

As to TPMIGTLAGANSLLNALP, the “Known activity in the database” value in the series on ACE [1] is recorded as “ACE inhibitor”. PIYSNKLGKFF: in the series on ACE [1], the “Known activity in the database” value was “ACE inhibitor”. With DRDSYNLHPGDAQRIPAGTTY, in the series with ACE [1], the “Known activity in the database” value is “ACE inhibitor”. For NNPFKFLVPPQESQKR, in the series with ACE [1], the “Known activity in the database” value is reported as “ACE inhibitor”. Turning to PSSPFTDLWDPRRVGD, in the series on ACE [1], the “Known activity in the database” value is recorded as “ACE inhibitor”. On to RPSIGNLAGANSLLNALP, for which the “Known activity in the database” value with ACE [1] is given as “ACE inhibitor”.

For the substance DRPSIGNLAGANSLLNALP, in the series with ACE [1], the “Known activity in the database” value was “ACE inhibitor”.
